32 compounds from patent publication US12384789B2, “Compounds for treating Huntington's disease” (PTC Therapeutics, Inc., priority 2017, dated 2025) can be followed below.

Usually IC50 stands for the concentration at which inhibition is half-maximal. High values mean weaker potency, low ones greater potency.

Structures are written as SMILES.

In the assay the test system is Endogenous Huntingtin Protein. The assay is described as follows: Endogenous Huntingtin Protein Assay (Meso Scale Discovery ELISA-based electrochemiluminescence). It is filed as cell-based. Conditions: MSD electrochemiluminescence, Table 1. As to the method:
Compounds of Formula (I) were tested using the Meso Scale Discovery (MSD) Assay provided in International Application No. PCT/US2016/066042, filed on Dec. 11, 2016 and claiming priority to United States Provisional Application U.S. 62/265,652 filed on Dec. 10, 2015, the entire contents of which are incorporated herein by reference.
The Endogenous Huntingtin Protein assay used in Example 1 was developed using the ELISA-based MSD electrochemiluminescence assay platform.
Endogenous Huntingtin Protein Assay
Meso Scale Discovery (MSD) 96-well or 384-well plates were coated overnight at 4° C. with MW1 (expanded polyglutamine) or MAB2166 monoclonal antibody (for capture) at a concentration of 1 μg/mL in PBS (30 μL per well). Plates were then washed three times with 300 μL wash buffer (0.05% Tween-20 in PBS) and blocked (100 μL blocking buffer; 5% BSA in PBS) for 4-5 hours at room temperature with rotational shaking and then washed three times with wash buffer.
Samples (25 μL) were transferred to the antibody-coated MSD plate and incubated overnight at 4° C. After removal of the lysates, the plate was washed three times with wash buffer, and 25 μL of #5656S (Cell signaling; rabbit monoclonal) secondary antibody (diluted to 0.25 μg/mL in 0.05% Tween-20 in blocking buffer) was added to each well and incubated with shaking for 1 Hour at room temperature. Following incubation with the secondary antibody, the wells were rinsed with wash buffer after which 25 μL of goat anti-rabbit SULFO TAG secondary detection antibody (required aspect of the MSD system) (diluted to 0.25 μg/mL in 0.05% Tween-20 in blocking buffer) was added to each well and incubated with shaking for 1 hour at room temperature. After rinsing three times with wash buffer, 150 μL of read buffer T with surfactant (MSD) were added to each empty well, and the plate was imaged on a SI 6000 imager (MSD) according to manufacturers' instructions provided for 96- or 384-well plates.
For `CCN1CCC(c2cc3c(F)cc(-c4cc(F)c5nc(C)cn5c4)cc3nn2)CC1` [Compound 102, 3-(1-ethylpiperidin-4-yl)-5-fluoro-7-(8-fluoro-2-methylimidazo[1,2-a]pyridin-6-yl)cinnoline], the IC50 is not above 100 nM.
Next, `Cc1cn2nc(-c3cc4c(F)cc(C5CCNCC5)cc4nn3)cc(C)c2n1` [Compound 185, 3-(2,8-dimethylimidazo[1,2-b]pyridazin-6-yl)-5-fluoro-7-(piperidin-4-yl)cinnoline]: not above 100 nM; `Cn1cc2cc(-c3cc(F)c4cc(C5CCNCC5)nnc4c3)cc(C#N)c2n1` [Compound 104, 5-[5-fluoro-3-(piperidin-4-yl)cinnolin-7-yl]-2-methyl-2H-indazole-7-carbonitrile]: not above 100 nM; `Cc1cn2nc(-c3cc(F)c4cc(C5CCN(CCO)CC5)nnc4c3)cc(C#N)c2n1` [Compound 178, 6-{5-fluoro-3-[1-(2-hydroxyethyl)piperidin-4-yl]cinnolin-7-yl}-2-methylimidazo[1,2-b]pyridazine-8-carbonitrile]: not above 100 nM.
Next, `CCN1CCC(c2ccc3cc(-c4ccc5nn(C)cc5c4)ccc3n2)CC1` [Compound 9, 2-(1-ethylpiperidin-4-yl)-6-(2-methyl-2H-indazol-5-yl)quinoline]: 1000 to 3000 nM; `CCN1[C@H](C)CC(c2cc3c(F)cc(-c4cc(C)c5nc(C)cn5n4)cc3nn2)C[C@H]1C` (stereo partly drawn) [Compound 125, 7-(2,8-dimethylimidazo[1,2-b]pyridazin-6-yl)-3-[(2R,6R)-1-ethyl-2,6-dimethylpiperidin-4-yl]-5-fluorocinnoline]: not above 100 nM; `Cc1cn2nc(-c3cc(F)c4cc(C5CCNCC5)nnc4c3)ccc2n1` [Compound 99, 5-fluoro-7-(2-methylimidazo[1,2-b]pyridazin-6-yl)-3-(piperidin-4-yl)cinnoline]: not above 100 nM.
Next, `Cc1cc(-c2cc(F)c3nc(C4CCNCC4)ncc3c2)cc2cn(C)nc12` [Compound 34, 6-(2,7-dimethyl-2H-indazol-5-yl)-8-fluoro-2-(piperidin-4-yl)quinazoline]: not above 100 nM; `Cn1cc2cc(-c3ccc4nc(C5CCNCC5)ccc4c3)ccc2n1` [Compound 3, 6-(2-methyl-2H-indazol-5-yl)-2-(piperidin-4-yl)quinolone]: 100 to 500 nM; `Cc1cc2oc(-c3cc(F)c4cc(C5C[C@@H](C)N(C)[C@@H](C)C5)nnc4c3)nc2c(C)n1` (stereo partly drawn) [Compound 228, 7-(4,6-dimethyloxazolo[4,5-c]pyridin-2-yl)-5-fluoro-3-((2S,4R,6R)-1,2,6-trimethylpiperidin-4-yl)cinnoline]: 100 to 500 nM.
In the case of `Cc1cc(-c2cc3c(F)cc([C@@]4(O)CCNC[C@@H]4O)cc3nn2)cc2cn(C)nc12` [Compound 203, (3S,4S)-4-[3-(2,7-dimethyl-2H-indazol-5-yl)-5-fluorocinnolin-7-yl]piperidine-3,4-diol], the IC50 fell in the range of 500 to 1000 nM.
For `Cc1cn2nc(-c3cc(F)c4cc(C5CCNCC5)nnc4c3)cc(C#N)c2n1` [Compound 108, 6-[5-fluoro-3-(piperidin-4-yl)cinnolin-7-yl]-2-methylimidazo[1,2-b]pyridazine-8-carbonitrile] the value was not above 100 nM.
Next, `CCN1CCC(c2nnc3cc(-c4cc(C)c5nc(C)cn5n4)cc(F)c3n2)CC1` [Compound 70, 7-(2,8-dimethylimidazo[1,2-b]pyridazin-6-yl)-3-(1-ethylpiperidin-4-yl)-5-fluoro-1,2,4-benzotriazine]: not above 100 nM; `Cc1cn2nc(-c3cc(F)c4cc(C5CCN(C)CC5)nnc4c3)cc(CO)c2n1` [Compound 180, {6-[5-fluoro-3-(1-methylpiperidin-4-yl)cinnolin-7-yl]-2-methylimidazo[1,2-b]pyridazin-8-yl}methanol]: not above 100 nM; `Cc1nc2c(F)cc(-c3cc(F)c4nc(C5CCNCC5)nnc4c3)cc2o1` [Compound 68, 5-fluoro-7-(4-fluoro-2-methyl-1,3-benzoxazol-6-yl)-3-(piperidin-4-yl)-1,2,4-benzotriazine]: not above 100 nM.
For `Cc1cn2nc(-c3cc(F)c4cc(N5CCC6(CC5)CNC6)nnc4c3)cc(C)c2n1` [Compound 219, 3-(2,7-diazaspiro[3.5]nonan-7-yl)-7-(2,8-dimethylimidazo[1,2-b]pyridazin-6-yl)-5-fluorocinnoline] the value was not above 100 nM.
The compound `CCN1CCC(c2cc(F)c3cc(-c4cc(C)c5nn(C)cc5c4)nnc3c2)CC1` [Compound 183, 3-(2,7-dimethyl-2H-indazol-5-yl)-7-(1-ethylpiperidin-4-yl)-5-fluorocinnoline] gave an IC50 not above 100 nM.
In the case of `Cc1cn2cc(-c3cc(F)c4nc(C5CCNCC5)ccc4c3)cc(F)c2n1` [Compound 50, 8-fluoro-6-(8-fluoro-2-methylimidazo[1,2-a]pyridin-6-yl)-2-(piperidin-4-yl)quinoline], the IC50 was not above 100 nM.
Next, `Cc1cn2nc(-c3cc(F)c4cc(C5=CC(C)(C)NC(C)(C)C5)nnc4c3)cc(C)c2n1` [Compound 208, 7-(2,8-dimethylimidazo[1,2-b]pyridazin-6-yl)-5-fluoro-3-(2,2,6,6-tetramethyl-1,2,3,6-tetrahydropyridin-4-yl)cinnoline]: 100 to 500 nM; `CCN1CCC(c2cc3c(F)cc(-c4cc(C)c5nc(C)[nH]c5n4)cc3nn2)CC1` [Compound 132, 7-(2,7-dimethyl-3H-imidazo[4,5-b]pyridin-5-yl)-3-(1-ethylpiperidin-4-yl)-5-fluorocinnoline]: not above 100 nM.
For `Cc1cn2nc(-c3cc(F)c4cc(C5C[C@@H](C)N(C)[C@H](C)C5)nnc4c3)cc(C)c2n1` (stereo partly drawn) [Compound 124, 7-(2,8-dimethylimidazo[1,2-b]pyridazin-6-yl)-5-fluoro-3-[(25,6S)-1,2,6-trimethylpiperidin-4-yl]cinnoline] the value was not above 100 nM; for `Cc1cn2nc(-c3cc(F)c4cc(C5CCNCC5)nnc4c3)cc(OCCCn3ccnc3)c2n1` [Compound 142, 5-fluoro-7-{8-[3-(1H-imidazol-1-yl)propoxy]-2-methylimidazo[1,2-b]pyridazin-6-yl}-3-(piperidin-4-yl)cinnoline], 100 to 500 nM; for `CCN1CCC(c2cc3c(F)cc(-c4cc(OC)c5nc(C)cn5n4)cc3nn2)CC1` [Compound 111, 3-(1-ethylpiperidin-4-yl)-5-fluoro-7-(8-methoxy-2-methylimidazo[1,2-b]pyridazin-6-yl)cinnoline], not above 100 nM.
Next, `CCc1cc(-c2cc(F)c3cc(C4CCN(CCO)CC4)nnc3c2)nn2cc(C)nc12` [Compound 123, 2-{4-[7-(8-ethyl-2-methylimidazo[1,2-b]pyridazin-6-yl)-5-fluorocinnolin-3-yl]piperidin-1-yl}ethan-1-ol]: not above 100 nM; `Cc1cn2nc(-c3cc(F)c4cc(C5CCN(CCCn6cccn6)CC5)nnc4c3)cc(C)c2n1` [Compound 160, 7-(2,8-dimethylimidazo[1,2-b]pyridazin-6-yl)-5-fluoro-3-{1-[3-(1H-pyrazol-1-yl)propyl]piperidin-4-yl}cinnoline]: not above 100 nM.
As to `CCN1CCC(c2cc3c(F)cc(-c4cc(C)c5nc(C)sc5n4)cc3nn2)CC1` [Compound 135, 7-(2,7-dimethyl[1,3]thiazolo[5,4-b]pyridin-5-yl)-3-(1-ethylpiperidin-4-yl)-5-fluorocinnoline], the IC50 is not above 100 nM.
For `Cn1cc2cc(-c3ccc4cc(C5CCNCC5)cc(F)c4n3)cc(F)c2n1` [Compound 192, 8-fluoro-2-(7-fluoro-2-methyl-2H-indazol-5-yl)-6-(piperidin-4-yl)quinoline] the value was not above 100 nM; for `CCN1CCC(c2cc(F)c3cc(-c4cc(C)c5nc(C)cn5n4)nnc3c2)CC1` [Compound 186, 3-(2,8-dimethylimidazo[1,2-b]pyridazin-6-yl)-7-(1-ethylpiperidin-4-yl)-5-fluorocinnoline], not above 100 nM; for `Cc1cc2oc(-c3cc(F)c4cc(C5CCN(C)CC5)nnc4c3)nc2c(C)n1` [Compound 214, 7-(4,6-dimethyl[1,3]oxazolo[4,5-c]pyridin-2-yl)-5-fluoro-3-(1-methylpiperidin-4-yl)cinnoline], 100 to 500 nM.
For `Cc1cn2nc(-c3cc(F)c4cc(N5CC[C@@H](N(C)C)C5)nnc4c3)cc(C)c2n1` [Compound 89, (3R)-1-[7-(2,8-dimethylimidazo[1,2-b]pyridazin-6-yl)-5-fluorocinnolin-3-yl]-N,N-dimethylpyrrolidin-3-amine] the value was not above 100 nM; for `CCN1[C@H](C)CC(c2cc3c(F)cc(-c4cc(C)c5nc(C)cn5n4)cc3nn2)C[C@@H]1C` (stereo partly drawn) [Compound 168, 7-(2,8-dimethylimidazo[1,2-b]pyridazin-6-yl)-3-[(2R,6S)-1-ethyl-2,6-dimethylpiperidin-4-yl]-5-fluorocinnoline], 100 to 500 nM.
For `Cc1nc2c(C)cc(-c3cc(F)c4cc(C5CCNCC5)nnc4c3)nc2s1` [Compound 133, 7-(2,7-dimethyl[1,3]thiazolo[5,4-b]pyridin-5-yl)-5-fluoro-3-(piperidin-4-yl)cinnoline], the IC50 was not above 100 nM.
